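Interpolation was linear, between the two tested concentrations surrounding the appropriate level; five concentrations were tested over 48 hours in 96-well plates. Here, GI50 denotes the concentration required for 50% inhibition of growth.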 Active and inactive are the calls of the source. Cut-off read from the data, not from the text of the source: active = GI50 up to about 1.1 µM and inactive = higher.
Tests used:
Assay in all cases: DTP human tumour cell line panel, 48 h
[1] = test system: SK-MEL-28
[2] = test system: SK-MEL-2
[3] = test system: OVCAR-5
[4] = test system: SF-295
[5] = test system: HT-29
[6] = test system: 786-0
[7] = test system: A498
[8] = test system: SW-620
[9] = test system: OVCAR-4
[10] = test system: COLO 205
[11] = test system: M14
[12] = test system: MOLT-4
[13] = test system: OVCAR-8
[14] = test system: RXF 393
[15] = test system: HL-60
[16] = test system: HCT-15
[17] = test system: LOX IMVI
[18] = test system: NCI-H226

SMILES | GI50 [1] | GI50 [2] | GI50 [3] | GI50 [4] | GI50 [5] | GI50 [6] | GI50 [7] | GI50 [8] | GI50 [9] | GI50 [10] | GI50 [11] | GI50 [12] | GI50 [13] | GI50 [14] | GI50 [15] | GI50 [16] [µM] | GI50 [17] | GI50 [18]
COc1cc2c(cc1OC)C(C(=O)O)C(c1ccccc1)N(C)C2=O (stereo unspecified) | > 100 µM (inactive) | > 100 µM (inactive) | > 100 µM (inactive) | > 100 µM (inactive) | > 100 µM (inactive) | > 100 µM (inactive) | > 100 µM (inactive) | > 100 µM (inactive) | > 100 µM (inactive) | > 100 µM (inactive) | > 100 µM (inactive) | > 100 µM (inactive) | > 100 µM (inactive) |  |  |  |  | 
CC(=O)OCC1OC(OCc2ccccc2)C(Br)C(OC(C)=O)C1OC(C)=O (stereo unspecified) | > 100 µM (inactive) |  | > 100 µM (inactive) | > 100 µM (inactive) | > 100 µM (inactive) | > 100 µM (inactive) | > 100 µM (inactive) | > 100 µM (inactive) | > 100 µM (inactive) | > 100 µM (inactive) | > 100 µM (inactive) | > 100 µM (inactive) | > 100 µM (inactive) | > 100 µM (inactive) | > 100 µM (inactive) | > 100 | > 100 µM (inactive) | > 100 µM (inactive)
Cc1cccc(NC(=O)CC#N)c1Cl | > 100 µM (inactive) | > 100 µM (inactive) |  | > 100 µM (inactive) | > 100 µM (inactive) | > 100 µM (inactive) |  | > 100 µM (inactive) |  |  | > 100 µM (inactive) | > 100 µM (inactive) |  |  | > 100 µM (inactive) | > 100 | > 100 µM (inactive) | > 100 µM (inactive)
O=C1c2ccc3c4ccccc4n(-c4ccccc4)c3c2C(=O)N1c1ccc(Cl)cc1 |  | > 100 µM (inactive) | > 100 µM (inactive) | > 100 µM (inactive) | 29 µM (inactive) | > 100 µM (inactive) | > 100 µM (inactive) | > 100 µM (inactive) | > 100 µM (inactive) | > 100 µM (inactive) | > 100 µM (inactive) | > 100 µM (inactive) | > 100 µM (inactive) | > 100 µM (inactive) | > 100 µM (inactive) | > 100 | > 100 µM (inactive) | > 100 µM (inactive)
CCCCSN1C(=O)c2ccccc2C1=S | > 100 µM (inactive) | 34.4 µM (inactive) | > 100 µM (inactive) | 39.3 µM (inactive) | 29.4 µM (inactive) | 34.1 µM (inactive) | > 100 µM (inactive) | 32.9 µM (inactive) | 76.6 µM (inactive) | 62.4 µM (inactive) | 41.6 µM (inactive) | 18.5 µM (inactive) | 60.4 µM (inactive) | 81.3 µM (inactive) | 21.4 µM (inactive) | > 100 | 54.2 µM (inactive) | 

— ChEMBL document CHEMBL1201862, “PubChem BioAssay data set” (2004)
